Results taken from patent publication US4868195A, “Novel enolamides, pharmaceutical compositions and methods of use thereof for activity as modulators of the arachidonic acid cascade” (Warner-Lambert Company, priority 1988, dated 1989).

tested on: Human Leukocyte Lipoxygenase; experiment: Human Leukocyte Lipoxygenase Assay (LDA-H); format: biochemical; conditions: Concentration 2.50 E -5 M
How it was run: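 Enzyme from acetone-pentane powder of human buffy-coat leukocytes, extracted in 0.1M Tris pH 7.4. Compound preincubated 5 min with enzyme, then reaction started with arachidonic or linoleic acid (100 μM or 1.0 μM) and followed at 234 nm (conjugated diene) at 24° C. IC50 is molar concentration halving control rate.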

% Inhibition (LDAH) [%] | SMILES
0.0 | CCCCOc1ccc(CCc2ccc(NC(=O)C3CS(=O)(=O)c4ccccc4C3=O)cc2)cc1 (centres unmarked) [Example 48]
0.0 | O=C(Nc1ccc(CCc2ccc3ccccc3c2)cc1)C1=C(O)c2ccccc2S(=O)(=O)C1 [Example 51, 4-Hydroxy-N-[4-[2-(2-naphthalenyl)ethyl]phenyl]-2H-1-benzothiopyran-3-carboxamide, 1,1-dioxide]

same assay, conditions: acetone-pentane powder enzyme, 234 nm, 24° C., 5 min preincubation; read-out: Concentration (M) for 50.0 % Inhibition, IC (LDAH)

IC50 [M] | SMILES
5.1e-05 | O=C(Nc1ccc(CCc2ccccc2)cc1)C1CS(=O)(=O)c2ccccc2C1=O (centres unmarked) [Example 16, 3,4-Dihydro-4-oxo-N-[(4-(2-phenyl)ethyl]-phenyl]-2H-1-benzothiopyran-3-carboxamide, 1,1-dioxide]
4.5e-05 | COc1ccc(CCc2ccc(NC(=O)C3CS(=O)(=O)c4ccccc4C3=O)cc2)cc1 (centres unmarked) [Example 41]
1.1e-05 | O=C(Nc1ccc(CCc2ccc(-c3ccccc3)cc2)cc1)C1CS(=O)(=O)c2ccccc2C1=O (centres unmarked) [Example 46, N-[4-[2-([1,1'-biphenyl]-4-yl)ethyl]phenyl]-3,4-dihydro-4-oxo-2H-1-benzothiopyran-3-carboxamide, 1,1-dioxide]
3.5e-06 | O=C(Nc1ccc(CCc2ccc(Cl)cc2)cc1)C1CS(=O)(=O)c2ccccc2C1=O (centres unmarked) [Example 54, N-[4-[2-(4-Chlorophenyl)ethyl]phenyl]-3,4-dihydro-4-oxo-2H-1-benzothiopyran-3-carboxamide, 1,1-dioxide]
2.5e-05 | CCCCCCCCCCc1ccc(NC(=O)C2CS(=O)(=O)c3ccccc3C2=O)cc1 (centres unmarked) [Example 60, N-(4-Decylphenyl)-3,4-dihydro-4-oxo-2H-1-benzoothiopyran-3-carboxamide, 1,1-dioxide]
4.4e-06 | COc1ccc(CCc2ccc(NC(=O)c3sc4ccccc4c3O)cc2)cc1OC [Example 143, Benzo[b]thiophene-2-carboxamide, N-[4-[2-(3,4-dimethoxphenyl)ethyl]phenyl]-3-hydroxy]
